The text below walks through data of publication PMC9691366, “Modulating the pharmacokinetic profile of Actinium-225-labeled macropa-derived radioconjugates by dual targeting of PSMA and albumin” (Theranostics, 2022).

In general, Kd refers to the equilibrium constant for the complex coming apart. A high value points to lower affinity.

Marks after values point to notes of the source that are not given here.

The target of this assay is PSMA (Homo sapiens, UniProt Q04609). The experiment in a line: Saturation binding studies on PSMA-positive LNCaP cells. The settings on record: 95% confidence interval in brackets; for Kd: on ice. The method, then:
The cell binding behavior of the ^225Ac-labeled, 4-(p-iodophenyl)butyrate-containing PSMA radioconjugates [^225Ac]Ac-mcp-M-alb-PSMA and [^225Ac]Ac-mcp-D-alb-PSMA was analyzed in saturation binding studies using PSMA-positive LNCaP cells.
Figure 2 Saturation binding curves for (A) [^225Ac]Ac-mcp-M-alb-PSMA and (B) [^225Ac]Ac-mcp-D-alb-PSMA. Nonspecific binding was determined in the presence of 500 µM unlabeled PSMA-617. Specific binding was calculated as the difference between total and nonspecific binding (n = 3 for each data point).
Saturation binding studies to determine the equilibrium dissociation constants (KD) and the maximum binding capacities (Bmax) were performed as described elsewhere. In short, 30000 LNCaP cells were seeded in 48-well microplates (Greiner Bio-One GmbH, Frickenhausen, Germany) and cultivated for 48 h to allow cell adhesion and growth. During the experiment, cells were kept on ice and all reagents were added ice-cold. The cell culture medium was replaced by PBS (200 µL/well) and the microplates were preincubated for 30 min at 4 °C. The ^225Ac-radioconjugates were added to the wells in a volume of 200 µL at different concentrations (15 pM to 500 nM). The nonspecific binding was assessed in parallel by blocking the LNCaP cells with a 1000-fold excess of unlabeled PSMA-617. After incubation of the microplates for 90 min on ice, the cells were washed three times with ice-cold PBS. The cells were lysed in 0.1 M NaOH containing 1% (w/v) sodium dodecyl sulfate. The activity of cell lysates was measured using an automatic gamma counter (Hidex Deutschland Vertrieb GmbH, Mainz, Germany).

Chain of PSMA (Q04609 whole entry): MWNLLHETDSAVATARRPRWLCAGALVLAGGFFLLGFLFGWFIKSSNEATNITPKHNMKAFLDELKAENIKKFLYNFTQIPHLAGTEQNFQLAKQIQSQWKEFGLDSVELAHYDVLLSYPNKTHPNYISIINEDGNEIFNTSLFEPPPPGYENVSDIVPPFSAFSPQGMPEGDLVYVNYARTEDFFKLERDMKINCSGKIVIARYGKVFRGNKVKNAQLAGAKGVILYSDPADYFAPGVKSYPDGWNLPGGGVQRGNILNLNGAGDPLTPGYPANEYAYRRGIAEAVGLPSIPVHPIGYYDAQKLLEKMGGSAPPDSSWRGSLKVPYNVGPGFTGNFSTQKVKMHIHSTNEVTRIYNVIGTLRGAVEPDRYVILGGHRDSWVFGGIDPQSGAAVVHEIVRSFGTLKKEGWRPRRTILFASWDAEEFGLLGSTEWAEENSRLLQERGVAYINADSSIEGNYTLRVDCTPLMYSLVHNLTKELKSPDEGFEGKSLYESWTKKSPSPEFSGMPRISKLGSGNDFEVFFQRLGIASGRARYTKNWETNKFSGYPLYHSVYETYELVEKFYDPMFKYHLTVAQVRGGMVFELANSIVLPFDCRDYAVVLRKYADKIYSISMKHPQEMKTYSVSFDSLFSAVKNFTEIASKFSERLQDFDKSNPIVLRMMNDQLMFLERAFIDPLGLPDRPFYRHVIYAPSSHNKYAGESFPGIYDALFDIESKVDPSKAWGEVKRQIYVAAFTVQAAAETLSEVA

On to `O=C(O)CC[C@H](NC(=O)N[C@@H](CCCCNC(=O)[C@H](Cc1ccc2ccccc2c1)NC(=O)[C@H]1CC[C@H](CNC(=O)[C@H](CCCCn2cc(COc3cc(CN4CCOCCOCCN(Cc5cc(OCc6cn(CCCC[C@H](NC(=O)[C@H](CCC(=O)O)NC(=O)CCCc7ccc(I)cc7)C(=O)NC[C@H]7CC[C@H](C(=O)N[C@@H](Cc8ccc9ccccc9c8)C(=O)NCCCC[C@H](NC(=O)N[C@@H](CCC(=O)O)C(=O)O)C(=O)O)CC7)nn6)cc(C(=O)O)n5)CCOCCOCC4)nc(C(=O)O)c3)nn2)NC(=O)[C@H](CCC(=O)O)NC(=O)CCCc2ccc(I)cc2)CC1)C(=O)O)C(=O)O` [[^225Ac]Ac-mcp-D-alb-PSMA, metal not drawn], for which the Bmax was 1.96 (1.89 to 2.04)^# pmol/mg of protein and the Kd amounted to 11.6 nM.

For the molecule `O=C(O)CC[C@H](NC(=O)N[C@@H](CCCCNC(=O)[C@H](Cc1ccc2ccccc2c1)NC(=O)[C@H]1CC[C@H](CNC(=O)[C@H](CCCCn2cc(COc3cc(CN4CCOCCOCCN(Cc5cccc(C(=O)O)n5)CCOCCOCC4)nc(C(=O)O)c3)nn2)NC(=O)[C@H](CCC(=O)O)NC(=O)CCCc2ccc(I)cc2)CC1)C(=O)O)C(=O)O` [[^225Ac]Ac-mcp-M-alb-PSMA, metal not drawn], the Bmax was 0.46 (0.43 to 0.49)^# pmol/mg of protein and the affinity, expressed as Kd, was 23.4 nM.
